Measured values: EP4260865B1, “COMPOSITION COMPRISING PLANT EXTRACTS FOR TREATING HYPERCHOLESTEROLEMIA” (Anvest Group S.r.l., priority 2022, dated 2023)

Legend:
[1] = target: T1, HMG CoA-reductase enzyme (Homo sapiens, UniProt P04035); experiment: HMG-CoA reductase activity in treated human liver cells (HUCPI), NADPH oxidation; assay type: cell-based; details: administered once in the 24-hour period, Figure 4
T1 construct: First-line human liver cells (HUCPI) were cultured and treated with some compositions; endogenous in cells; host or cells: HUCPI first-line human liver cells
T1 sequence (P04035 1-888): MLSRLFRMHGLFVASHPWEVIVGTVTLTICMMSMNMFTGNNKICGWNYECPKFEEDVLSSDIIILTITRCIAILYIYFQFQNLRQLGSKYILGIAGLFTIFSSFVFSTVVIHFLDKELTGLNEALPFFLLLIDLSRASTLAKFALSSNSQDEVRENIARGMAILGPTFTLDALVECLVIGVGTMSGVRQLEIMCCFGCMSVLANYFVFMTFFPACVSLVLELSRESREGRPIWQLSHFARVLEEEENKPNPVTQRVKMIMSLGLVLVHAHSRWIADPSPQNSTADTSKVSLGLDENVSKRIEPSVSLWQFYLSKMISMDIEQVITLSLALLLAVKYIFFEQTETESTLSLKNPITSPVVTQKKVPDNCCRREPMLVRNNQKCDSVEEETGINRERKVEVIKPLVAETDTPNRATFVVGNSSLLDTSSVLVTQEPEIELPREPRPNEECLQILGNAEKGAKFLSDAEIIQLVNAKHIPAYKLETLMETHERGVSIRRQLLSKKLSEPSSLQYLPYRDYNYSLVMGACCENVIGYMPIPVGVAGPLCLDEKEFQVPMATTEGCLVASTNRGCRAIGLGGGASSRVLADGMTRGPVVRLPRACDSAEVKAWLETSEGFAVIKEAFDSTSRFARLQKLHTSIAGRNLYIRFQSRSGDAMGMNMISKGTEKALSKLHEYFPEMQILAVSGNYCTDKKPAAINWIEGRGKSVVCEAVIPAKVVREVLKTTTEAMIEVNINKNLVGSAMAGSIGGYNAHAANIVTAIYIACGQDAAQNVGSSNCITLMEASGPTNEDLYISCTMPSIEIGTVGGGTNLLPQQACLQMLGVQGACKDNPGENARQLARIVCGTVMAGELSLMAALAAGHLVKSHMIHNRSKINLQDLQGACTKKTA
Method: First-line human liver cells (HUCPI) were cultured and treated with some compositions, and with atorvastatin as a control, to evaluate the inhibition capacity of the HMG CoA-reductase enzyme. The enzymatic activity of HMG-CoA reductase was evaluated by measuring the dependent oxidation of NAPDH. For each sample, the measurements were carried out at least in triplicate, and the results were reported as the average of the single values.
The HUCPI cells were treated with the composition of Example 1 and with solutions of single extracts of Policosanols, and a mixture containing Policosanols, Oleuropein and Ipomea batata, in amounts equivalent to the ingredients of the composition of Example 1. After treatment, the cells were lysed and the catalytic fragment of the protein HMGR was cloned, overexpressed, and purified.

[2] = test system: PCSK9; experiment: PCSK9 inhibition in HepG2 liver cells (mRNA levels by qRT-PCR); assay type: cell-based, human; details: 40 µM berberine or 40 µM equivalent berberine, compared to the control
Method: Immortalized HepG2 human hepatocellular carcinoma cells were cultured and then treated with berberine extract, and the composition of Example 1. After treatment, the cells were lysed and the mRNA (messenger RNA) levels for PCSK9 expression were evaluated by qRT-PCR using human-specific PCR primers. For each sample, the measurements were carried out at least in triplicate and the results were reported as the average of the single values.
The efficacy of the invention composition was tested against HepG2 immortalized human hepatocarcinoma cells. […] The inhibition of the messenger RNA (mRNA) encoding the translation of the protein PCSK9 plays a key role in the mechanisms of action aimed at maximizing the hepatic reuptake of LDL cholesterol. […]
As it is possible to see in Figure 1, the mRNA levels related to PCSK9 expression of HepG2 cells are influenced by treatment with 40 µM of berberine, showing a reduction of about 25% after 6 hours and of 40% after 24 hours, compared to the control. […] In fact, a reduction of more than 40% was recorded after 6 hours from the treatment, while at 24 hours inhibition levels equal to about 60% were detected, due to a synergistic effect also of the other components present in the mixture, capable of influencing the PCSK9-LDLR metabolic pathway.

Compound | activity of HMRG [1] | reduction of mRNA levels related to PCSK9 expression ([2]; after 6 hours) | reduction of mRNA levels related to PCSK9 expression ([2]; after 24 hours) [%]
CC(C)c1c(C(=O)Nc2ccccc2)c(-c2ccccc2)c(-c2ccc(F)cc2)n1CC[C@@H](O)C[C@@H](O)CC(=O)O [atorvastatin] | significantly reduced the activity of HMRG |  | 
COc1ccc2cc3[n+](cc2c1OC)CCc1cc2c(cc1-3)OCO2 [berberine] |  | about 25% | 40
